TGI data for six compounds are collected here from PubChem BioAssay (NCI).

Some test systems named below: 786-0 renal; A498 renal; CAKI-1 renal; COLO 205 colon; HCT-116 colon; KM12 colon; MDA-N; MOLT-4 leukemia; OVCAR-3 ovarian; OVCAR-5 ovarian; RXF 393 renal; SF-539 CNS; SK-MEL-28 melanoma; SK-MEL-5 melanoma; SR leukemia; SW-620 colon; TK-10 renal; U251 CNS; UACC-257 melanoma; UACC-62 melanoma.
What all share (experiment): NCI anticancer screen, dose series, 48 h

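Five compound concentrations were applied to cells in 96-well plates for 48 hours; endpoints were derived by simple linear interpolation of the resulting dose-response curve. TGI denotes the concentration required for complete inhibition of growth.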

Regarding `CC(C)C1=C(Cc2ccccc2)C(=O)O/C1=C\c1cc(Cl)c(O)c(Cl)c1`, the TGI was found to be 32.1 µM with 786-0 renal; 53.1 µM with A498 renal; 29.9 µM with CAKI-1 renal; 35.3 µM in the assay with COLO 205 colon; 34.8 µM with HCT-116 colon; 35.1 µM in the assay with KM12 colon. For the same compound, the TGI in the assay with MDA-N was determined as 37.4 µM; with MOLT-4 leukemia it was 60.7 µM; with OVCAR-3 ovarian it was 27.2 µM; with OVCAR-5 ovarian, 43.7 µM; in the assay with RXF 393 renal it was 30.5 µM; in the assay with SF-539 CNS, 44.4 µM. In addition, the TGI in the assay on SK-MEL-28 melanoma came out at 35.9 µM; in the assay with SK-MEL-5 melanoma it was 34.5 µM; in the assay on SR leukemia, 66.8 µM; in the assay on SW-620 colon it was 44.6 µM; with TK-10 renal, 55.1 µM; with U251 CNS it was 31.8 µM. The values for the TGI with UACC-257 melanoma and in the assay on UACC-62 melanoma were 32.2 µM and 36 µM, respectively.

Consider `CCOC(=O)C1=C(N)Oc2ccc(Br)cc2C1C(C#N)C(=O)OCC` (stereo not given), for which the TGI is 70.1 µM in the assay on 786-0 renal; above 100 µM in the assay with A498 renal; above 100 µM in the assay with CAKI-1 renal; 42.3 µM in the assay with COLO 205 colon; 42.2 µM in the assay on HCT-116 colon; 62.7 µM in the assay with KM12 colon. Also, the TGI in the assay on MDA-N was found to be 54.9 µM; in the assay on MOLT-4 leukemia, 90.9 µM; in the assay with OVCAR-3 ovarian, 39.7 µM; with OVCAR-5 ovarian it was 66.3 µM; in the assay on RXF 393 renal, 22 µM; with SF-539 CNS, 40.3 µM. Moreover, the TGI is 32.4 µM in the assay with SK-MEL-28 melanoma; 42.6 µM in the assay on SK-MEL-5 melanoma; above 100 µM in the assay on SR leukemia; 43.2 µM with SW-620 colon; 36.2 µM with TK-10 renal; 33.8 µM in the assay with U251 CNS. The TGI worked out at 61.7 µM in the assay with UACC-257 melanoma and 83.5 µM in the assay with UACC-62 melanoma.

Consider `CSc1ncnc2c1cnn2CCCCO`, for which the TGI in the assay on 786-0 renal, with A498 renal, with CAKI-1 renal, in the assay with COLO 205 colon, in the assay on HCT-116 colon and in the assay on KM12 colon was above 100 µM throughout. The TGI in the assay with MDA-N, with MOLT-4 leukemia, in the assay on OVCAR-3 ovarian, with OVCAR-5 ovarian, in the assay on RXF 393 renal and in the assay with SF-539 CNS was above 100 µM in each case. For the same compound, the TGI in the assay with SK-MEL-28 melanoma, in the assay on SK-MEL-5 melanoma, with SR leukemia, in the assay on SW-620 colon, in the assay with TK-10 renal and in the assay with U251 CNS was above 100 µM each time. For the same compound, the TGI in the assay on UACC-257 melanoma and with UACC-62 melanoma was above 100 µM throughout.

Turning to `CCCCCC(/C=C/C1CCC(=O)C1CC#C[Si](C)(C)C)OCc1ccccc1` (stereo not given), the TGI was 28.3 µM in the assay with 786-0 renal; above 85.8 µM in the assay with A498 renal; 36.8 µM with CAKI-1 renal; 39.3 µM in the assay on COLO 205 colon; 34.9 µM in the assay on HCT-116 colon; 33 µM with KM12 colon. Also, the TGI with MDA-N is 42.6 µM; in the assay on MOLT-4 leukemia, above 68.9 µM; in the assay with OVCAR-3 ovarian it was 39.1 µM; with OVCAR-5 ovarian, 39.5 µM; in the assay with RXF 393 renal, 30.1 µM; in the assay with SF-539 CNS, 46.2 µM. Besides, the TGI is above 58 µM in the assay with SK-MEL-28 melanoma; 27.9 µM with SK-MEL-5 melanoma; above 57.4 µM with SR leukemia; above 57 µM in the assay with SW-620 colon; 60.5 µM in the assay on TK-10 renal; 40.6 µM in the assay on U251 CNS. Moreover, the values for the TGI with UACC-257 melanoma and with UACC-62 melanoma were 39.6 µM and 30.6 µM, respectively.

`CC1(C)OC(=C(C#N)C#N)C(C#N)=C1/C=C/c1ccncc1`: the TGI in the assay on 786-0 renal worked out at 3.66 µM; in the assay on A498 renal it was 19.4 µM; in the assay on CAKI-1 renal it was 3.64 µM; in the assay on COLO 205 colon, 3.27 µM; with HCT-116 colon, 3.46 µM; in the assay with KM12 colon it was 9.14 µM. The TGI turned out to be 7.27 µM in the assay on MDA-N; 4.42 µM in the assay with MOLT-4 leukemia; 3.59 µM in the assay with OVCAR-3 ovarian; 8.11 µM in the assay on OVCAR-5 ovarian; 5.07 µM in the assay with RXF 393 renal; 3.49 µM in the assay on SF-539 CNS. The TGI was determined as 5.43 µM with SK-MEL-28 melanoma; 14.4 µM in the assay with SK-MEL-5 melanoma; 4.74 µM in the assay on SR leukemia; 4.41 µM with SW-620 colon; 4.12 µM in the assay on TK-10 renal; 3.65 µM in the assay on U251 CNS. Also, the TGI worked out at 8.27 µM in the assay with UACC-257 melanoma and 3.93 µM in the assay on UACC-62 melanoma.

For `Cc1ccc(-c2cc(-c3ccc(Cl)cc3)nc(/N=C3\C(=O)N(CN4CCOCC4)c4ccc(Cl)cc43)n2)cc1`, the TGI turned out to be 44.5 µM with 786-0 renal; 56.7 µM with A498 renal; 85.5 µM in the assay on CAKI-1 renal; 49.7 µM with COLO 205 colon; 40.9 µM in the assay on HCT-116 colon; 56.8 µM in the assay on KM12 colon. Also, the TGI in the assay on MDA-N is above 100 µM; in the assay with MOLT-4 leukemia, 57 µM; in the assay with OVCAR-3 ovarian it was above 100 µM; in the assay on OVCAR-5 ovarian, above 100 µM; in the assay with RXF 393 renal it was 26.9 µM; in the assay on SF-539 CNS, 59.5 µM. Also, the TGI in the assay with SK-MEL-28 melanoma is above 100 µM; with SK-MEL-5 melanoma, 38.4 µM; in the assay with SR leukemia it was above 100 µM; in the assay on SW-620 colon, above 100 µM; in the assay with TK-10 renal, 72.2 µM; with U251 CNS, 36.3 µM. Also, the TGI with UACC-257 melanoma was above 100 µM; in the assay on UACC-62 melanoma it was 93.2 µM.
